The values below are quoted from earlier work in patent US20210393650A1, “Designing Treatments for Chemotherapy-Induced and Age-Related Menopausal Symptoms Using Combinations of Natural Products and Prescription Medications” (Tess Ventures, Inc., priority 2018, published 2021).

The test system of one series is postmenopausal women. The following applies: human, in vivo.
The subject of the next series is CB1 receptor. To be noted: centrally-mediated, through the CB1 receptor.
A further series has as its system humans. To be noted: for effect on anxiety: humans, low to moderate doses.

With `OCCOc1ccc(/C(=C(/CCCl)c2ccccc2)c2ccccc2)cc1` [ospemifene, Z-2-[4-(4-chloro-1,2-diphenyl-but-1-enyl)-phenoxy]ethanol], the “treatment of VVA symptoms versus local estrogen” value in the series with postmenopausal women is on record as “equivalent to or better than local estrogen”. With `CCCCCc1cc(O)c2c(c1)OC(C)(C)C1CCC(C)=CC21` (stereo not shown) [Δ^9-THC, 6,6,9-trimethyl-3-pentyl-6a,7,8,10a-tetrahydrobenzo[c]chromen-1-ol], the “effect on body temperature” value in the series with CB1 receptor is listed as “hypothermic effect”. Moreover, the effect on anxiety result in the series with humans is listed as “anxiolytic effects”. Moreover, in the series with humans (insomnia), the “effect on sleep quality” value was “enhance short-term sleep quality”.

For `C=C(C)[C@@H]1CCC(C)=C[C@H]1c1c(O)cc(CCCCC)cc1O` [CBD, 2-[(1R,6R)-3-methyl-6-prop-1-en-2-ylcyclohex-2-en-1-yl]-5-pentyl-benzene-1,3-diol], the effect on anxiety entry with humans was “anxiolytic effects”. Further, the effect on insomnia entry in the series with humans (medium to high doses) is “sedative effect”. `COc1cc(/C=C/C(=O)CC(=O)/C=C/c2ccc(O)c(OC)c2)ccc1O` [curcumin]: the tail skin temperature result with ovariectomized rat is “significant suppression”.
